Measured values from article PMC9646841, “A bead-based GPCR phosphorylation immunoassay for high-throughput ligand profiling and GRK inhibitor screening” (Communications Biology, 2022).
Values joined by “and” are separate entries in the source; they are usually repeats but may differ in a detail not shown here. Equal values may be shown once. Read-outs that look alike come from different tables or passages of the source. Square brackets hold non-standard residues; d marks the D form. Peptide text beside a SMILES is read from it. Cha = N[C@@H](CC1CCCCC1)C(=O)O; dCha = N[C@H](CC1CCCCC1)C(=O)O

Experiments:
[1] = target: T1, C5a1 (Homo sapiens, UniProt P21730); test: pS338/pT339-C5a1 7TM phosphorylation assay; type: cell-based; settings: for Emax: read-out: Emax (% Control C028) pS338/pT339-C5a1
T1 construct: host or cells: Control-HEK293, ΔGRK2/3-HEK293, ΔGRK5/6-HEK293, stably expressing
T1 sequence (P21730 1-350): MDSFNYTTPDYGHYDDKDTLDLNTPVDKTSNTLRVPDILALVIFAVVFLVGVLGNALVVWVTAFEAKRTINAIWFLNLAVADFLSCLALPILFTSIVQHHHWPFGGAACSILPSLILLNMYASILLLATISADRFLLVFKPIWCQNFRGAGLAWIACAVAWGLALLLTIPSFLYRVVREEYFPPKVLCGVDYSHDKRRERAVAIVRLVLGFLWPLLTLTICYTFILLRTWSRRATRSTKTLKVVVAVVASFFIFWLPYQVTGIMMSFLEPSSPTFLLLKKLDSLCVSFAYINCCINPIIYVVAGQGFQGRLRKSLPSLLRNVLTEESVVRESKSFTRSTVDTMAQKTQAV

[2] = target: T1, C5a1; test: Total C5a1 loading control (np-C5a1 / anti-HA); type: cell-based
[3] = C028 10 µM, ΔGRK5/6-C5aR1-HEK293, concentration series
[4] = ΔGRK2/3-C5aR1-HEK293, C028 10 µM (concentration series)

N=C(N)NCCC[C@@H](NC(=O)[C@H](CC1CCCCC1)NC(=O)[C@@H](CC1CCCCC1)NC(=O)[C@@H]1CCCN1C(=O)[C@H](CCCCN)NC(=O)[C@@H](N)Cc1ccccc1)C(=O)O [C028, FKP-(D-Cha)-Cha-r] (H-FKP[dCha][Cha][dR]-OH)
pS338/pS339 normalized [1, 3]: 60.81% and 85.60% and 54.29% and 47.10% and 52.27% and 73.34% and 65.73% and 72.42% | pS338/pS339 signal, raw [1, 3]: 0.6953 and 0.6053 and 0.6054 and 0.6811 and 0.925 and 0.7569 and 1.0104 and 1.1456 | Emax ([1]; Control-HEK293): 100% | EC50 ([1]; pEC50 pS338/pT339-C5a1, Control-HEK293): 0.631 µM | EC50 ([1]; pEC50 pS338/pT339-C5a1, ΔGRK2/3-HEK293): 1 µM | Emax ([1]; ΔGRK2/3-HEK293): 55.2% | Emax ([1]; ΔGRK5/6-HEK293): 63.9% | np signal, raw ([2]; C028 0.01 µM, Control-C5aR1-HEK293): 1.7187 and 1.7849 and 1.2842 and 1.2491 and 1.8947 | np signal, raw ([2]; C028 0.01 µM, ΔGRK2/3-C5aR1-HEK293): 1.3719 and 1.658 and 1.494 and 1.3769 and 1.8182 | np signal, raw ([2]; C028 0.1 µM, Control-C5aR1-HEK293): 1.8405 and 1.7894 and 1.13 and 1.0755 and 1.6047 | np signal, raw ([2]; C028 0.1 µM, ΔGRK2/3-C5aR1-HEK293): 1.6138 and 1.8688 and 1.3994 and 1.4066 and 1.6881 | np signal, raw ([2]; C028 0.1 µM, ΔGRK5/6-C5aR1-HEK293): 1.983 and 1.7745 and 1.5114 and 1.8261 and 1.6189 | np signal, raw ([2]; C028 0.3 µM, ΔGRK5/6-C5aR1-HEK293): 1.6298 and 1.4921 and 1.6333 and 1.6817 and 1.6758 | np signal, raw ([2]; C028 1 µM, ΔGRK2/3-C5aR1-HEK293): 1.3996 and 1.4952 and 2.1996 and 1.4182 and 2.2245 | np signal, raw ([2]; C028 1 µM, ΔGRK5/6-C5aR1-HEK293): 1.9501 and 1.5997 and 1.4175 and 1.1243 and 1.5682 | np signal, raw ([2]; C028 3 µM, Control-C5aR1-HEK293): 1.9121 and 1.6861 and 1.569 and 1.3939 and 2.1397 | np signal, raw ([2]; C028 3 µM, ΔGRK2/3-C5aR1-HEK293): 1.5651 and 1.596 and 2.1319 and 1.2489 and 1.5422 | np signal, raw ([2]; C028 3 µM, ΔGRK5/6-C5aR1-HEK293): 1.6842 and 1.511 and 1.6612 and 1.9363 and 1.5067 | np signal, raw ([2]; C028 10 µM, Control-C5aR1-HEK293, concentration series): 1.6592 and 1.6457 and 1.7245 and 1.2748 and 1.696 | np signal, raw ([2]; C028 10 µM, Control-C5aR1-HEK293, first 0/10 µM pair): 1.6592 and 1.6457 and 1.3473 and 1.1686 and 1.879 | np signal, raw ([2]; C028 10 µM, Control-C5aR1-HEK293, last 0/10 µM pair of Control block): 1.9885 and 1.4944 and 1.4087 and 1.155 and 1.5321 | np signal, raw ([2]; C028 10 µM, Control-C5aR1-HEK293 beside ΔGRK2/3 block): 2.0332 and 1.1801 and 1.5046 and 1.4934 and 1.6943 | np signal, raw ([2]; C028 10 µM, Control-C5aR1-HEK293 beside ΔGRK5/6 block): 1.9038 and 2.0072 and 1.4662 and 1.7694 and 1.271 | np signal, raw ([2]; C028 10 µM, ΔGRK2/3-C5aR1-HEK293, concentration series): 1.5246 and 1.7106 and 1.3042 and 1.3389 and 1.7008 | np signal, raw ([2]; C028 10 µM, ΔGRK2/3-C5aR1-HEK293, first 0/10 µM pair): 1.2045 and 1.6486 and 1.422 and 1.3225 and 1.7342 | np signal, raw [2, 3]: 2.2585 and 1.8872 and 1.4472 and 1.4134 and 1.6269 | np signal, raw ([2]; C028 10 µM, ΔGRK5/6-C5aR1-HEK293, first 0/10 µM pair): 2.1115 and 2.0551 and 1.5281 and 1.3721 and 1.3579 | np (raw signal) ([2]; Control-C5aR1-HEK293, C028 0.01 µM, concentration series): 1.9803 and 1.5907 and 1.3538 and 1.2438 and 1.436 and 1.5903 and 1.7448 and 1.269 | np (raw signal) ([2]; Control-C5aR1-HEK293, C028 0.3 µM, concentration series): 1.588 and 1.7265 and 1.5961 and 0.9789 and 1.4851 and 1.7215 and 1.957 and 1.5097 | np (total C5aR1), raw signal ([2]; Control-C5aR1-HEK293, C028 0.01 µM): 1.3949 and 1.3266 and 1.5751 and 1.603 and 1.9857 and 2.1902 | np (total C5aR1), raw signal ([2]; Control-C5aR1-HEK293, C028 0.1 µM): 1.088 and 1.5141 and 1.6432 and 1.3119 and 2.129 and 1.8032 | np (total C5aR1), raw signal ([2]; Control-C5aR1-HEK293, C028 0.3 µM): 1.3568 and 1.8238 and 1.5485 and 1.2855 and 1.9306 and 1.5751 | np (total C5aR1), raw signal ([2]; Control-C5aR1-HEK293, C028 1 µM): 1.4754 and 1.6232 and 1.785 and 1.3295 and 1.6944 and 2.063 | np (total C5aR1), raw signal ([2]; Control-C5aR1-HEK293, C028 3 µM): 1.2425 and 1.4862 and 1.9242 and 1.5919 and 2.0564 and 1.6025 | np (total C5aR1), raw signal ([2]; Control-C5aR1-HEK293 beside ΔGRK5/6 series, C028 10 µM): 2.3386 and 2.3729 and 1.6554 and 1.7709 and 1.3577 and 1.3562 and 1.5255 | np (raw signal) ([2]; Control-C5aR1-HEK293 run beside the ΔGRK2/3 block, C028 10 µM): 1.8085 and 2.0631 and 1.4603 and 1.3915 and 1.4955 and 1.1807 | np (raw signal) ([2]; Control-C5aR1-HEK293 run beside the ΔGRK5/6 block, C028 10 µM): 1.9033 and 1.7695 and 1.3647 and 1.1555 and 2.1969 and 1.68 and 1.7195 and 1.5597 | np (raw signal) ([2]; ΔGRK2/3-C5aR1-HEK293, C028 0.01 µM, concentration series): 1.9037 and 1.8736 and 1.6092 and 1.5411 and 1.8666 and 1.9049 and 1.8208 and 1.3708 | np (raw signal) ([2]; ΔGRK2/3-C5aR1-HEK293, C028 0.1 µM, concentration series): 1.8343 and 1.6381 and 1.9187 and 1.6055 and 2.1604 and 1.5161 and 1.9037 and 1.8736 | np (raw signal) ([2]; ΔGRK2/3-C5aR1-HEK293, C028 0.3 µM, concentration series): 1.6659 and 1.792 and 1.7372 and 1.7036 and 2.059 and 1.9288 and 1.8343 and 1.6381 | np (raw signal) ([2]; ΔGRK2/3-C5aR1-HEK293, C028 1 µM, concentration series): 1.7539 and 1.6924 and 1.7772 and 1.4498 and 2.0307 and 1.5417 and 1.6659 and 1.792 | np (raw signal) ([2]; ΔGRK2/3-C5aR1-HEK293, C028 3 µM, concentration series): 1.6846 and 1.3473 and 1.4287 and 1.3661 and 2.0103 and 1.5757 and 1.7539 and 1.6924 | np (total C5aR1), raw signal ([2]; ΔGRK2/3-C5aR1-HEK293, C028 0.01 µM): 1.9989 and 2.1791 and 2.1472 and 1.695 and 1.8681 and 1.8947 and 1.79 | np (total C5aR1), raw signal ([2]; ΔGRK2/3-C5aR1-HEK293, C028 0.1 µM): 2.1466 and 2.0776 and 2.1938 and 2.0797 and 1.633 and 1.3767 and 1.2578 | np (total C5aR1), raw signal ([2]; ΔGRK2/3-C5aR1-HEK293, C028 0.3 µM): 1.9738 and 1.8316 and 2.0611 and 2.0567 and 1.8444 and 1.4691 and 1.6375 | np (total C5aR1), raw signal ([2]; ΔGRK2/3-C5aR1-HEK293, C028 1 µM): 1.8294 and 2.1206 and 2.1815 and 1.9867 and 1.4524 and 1.8069 and 1.3881 | np (total C5aR1), raw signal ([2]; ΔGRK2/3-C5aR1-HEK293, C028 3 µM): 1.9342 and 1.5491 and 2.0615 and 1.8761 and 1.3783 and 1.8045 and 1.3094 | np (total C5aR1), raw signal ([2]; ΔGRK2/3-C5aR1-HEK293, C028 10 µM (0/10 µM pair)): 1.6776 and 1.597 and 2.0065 and 1.9839 and 1.7864 and 1.8111 and 1.5147 | np (raw signal) [2, 4]: 1.6617 and 1.8239 and 1.3136 and 1.3724 and 1.8559 and 1.6 | np (total C5aR1), raw signal [2, 4]: 2.0002 and 1.769 and 2.052 and 2.2047 and 1.6138 and 1.7275 and 1.9566 | np (raw signal) ([2]; ΔGRK5/6-C5aR1-HEK293, C028 0.3 µM, concentration series): 1.7318 and 1.8541 and 1.5067 and 1.2715 and 1.8493 and 2.0046 and 1.7672 and 1.7676 | np (raw signal) ([2]; ΔGRK5/6-C5aR1-HEK293, C028 1 µM, concentration series): 2.0252 and 1.7968 and 1.4934 and 1.2437 and 2.0647 and 1.7841 and 1.4601 and 1.5886 | np (raw signal) ([2]; ΔGRK5/6-C5aR1-HEK293, C028 10 µM, first 0/10 µM column pair): 1.7829 and 1.9246 and 1.5744 and 1.3841 and 1.8642 and 1.9552 and 1.5996 and 1.6914 | np (total C5aR1), raw signal ([2]; ΔGRK5/6-C5aR1-HEK293, C028 10 µM (0/10 µM pair)): 1.7545 and 1.6551 and 1.4386 and 1.778 and 1.4304 and 1.6743 and 2.0075 | np (total C5aR1), raw signal ([2]; ΔGRK5/6-C5aR1-HEK293, C028 10 µM (concentration series)): 1.8811 and 1.8348 and 1.6561 and 1.4006 and 1.0888 and 1.1737 and 1.1522
